Calls of active or inactive are those of the source.
Columns and labels:
[1] = target: T1, Methionyl-tRNA synthetase, putative (Trypanosoma brucei brucei, UniProt Q38C91); format: functional, Trypanosoma brucei brucei strain 927/4 GUTat10.1
T1 sequence (Q38C91 whole entry): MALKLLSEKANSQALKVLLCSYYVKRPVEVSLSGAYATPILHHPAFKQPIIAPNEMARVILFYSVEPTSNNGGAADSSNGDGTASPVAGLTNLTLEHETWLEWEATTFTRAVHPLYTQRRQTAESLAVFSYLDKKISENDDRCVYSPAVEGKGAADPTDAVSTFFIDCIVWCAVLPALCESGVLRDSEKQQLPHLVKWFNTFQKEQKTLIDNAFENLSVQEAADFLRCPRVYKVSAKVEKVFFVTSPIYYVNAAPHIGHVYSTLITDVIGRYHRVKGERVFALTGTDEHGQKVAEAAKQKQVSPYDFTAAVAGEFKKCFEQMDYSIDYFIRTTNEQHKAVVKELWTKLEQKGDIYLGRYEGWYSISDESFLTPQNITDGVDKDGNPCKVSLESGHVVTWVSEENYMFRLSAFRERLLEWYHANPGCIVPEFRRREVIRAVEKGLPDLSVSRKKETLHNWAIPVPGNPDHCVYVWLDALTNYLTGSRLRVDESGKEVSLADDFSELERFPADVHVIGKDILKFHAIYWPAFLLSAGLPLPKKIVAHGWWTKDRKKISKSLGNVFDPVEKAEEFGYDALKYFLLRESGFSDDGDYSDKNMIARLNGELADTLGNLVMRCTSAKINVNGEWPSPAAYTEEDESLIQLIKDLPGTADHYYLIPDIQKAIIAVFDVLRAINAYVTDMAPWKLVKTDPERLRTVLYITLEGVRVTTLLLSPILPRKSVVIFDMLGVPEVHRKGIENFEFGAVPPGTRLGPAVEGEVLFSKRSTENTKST

[2] = Counterscreen for inhibitors of Trypanosoma brucei methionyl tRNA synthetase (MetRS): Luminescence-based cell-based high throughput dose response assay to identify compounds that are cytotoxic to Jurkat human T lymphocyte cells.; format: functional
[3] = target: T1, Methionyl-tRNA synthetase, putative; format: functional, Trypanosoma brucei brucei strain 927/4 GUTat10.1; remark: listed apart in the source
HEK293 [4] = assay: HEK cell cytotoxicity by LDH release, dose response, cytotoxicity control for IDE activator project, fluorescence, HEK cells (AID 588440); format: functional, cell-based; conditions: Homo sapiens;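 also: cytotoxicity by LDH release measuring loss of membrane integrity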
HEK293 [5] = assay: optical interference in Abeta FP readout, dose response, artefact control for IDE activator project, biochemical, fluorescence polarization (AID 588442); format: functional, cell-based; conditions: Homo sapiens
Insulin-degrading enzyme [6] = target: T2, Insulin-degrading enzyme (Homo sapiens, UniProt P14735); assay: activators of recombinant IDE enzyme, dose response, counter-screen for IDE activator project, biochemical, fluorescence polarization (AID 588681)
T2 sequence (P14735 whole entry): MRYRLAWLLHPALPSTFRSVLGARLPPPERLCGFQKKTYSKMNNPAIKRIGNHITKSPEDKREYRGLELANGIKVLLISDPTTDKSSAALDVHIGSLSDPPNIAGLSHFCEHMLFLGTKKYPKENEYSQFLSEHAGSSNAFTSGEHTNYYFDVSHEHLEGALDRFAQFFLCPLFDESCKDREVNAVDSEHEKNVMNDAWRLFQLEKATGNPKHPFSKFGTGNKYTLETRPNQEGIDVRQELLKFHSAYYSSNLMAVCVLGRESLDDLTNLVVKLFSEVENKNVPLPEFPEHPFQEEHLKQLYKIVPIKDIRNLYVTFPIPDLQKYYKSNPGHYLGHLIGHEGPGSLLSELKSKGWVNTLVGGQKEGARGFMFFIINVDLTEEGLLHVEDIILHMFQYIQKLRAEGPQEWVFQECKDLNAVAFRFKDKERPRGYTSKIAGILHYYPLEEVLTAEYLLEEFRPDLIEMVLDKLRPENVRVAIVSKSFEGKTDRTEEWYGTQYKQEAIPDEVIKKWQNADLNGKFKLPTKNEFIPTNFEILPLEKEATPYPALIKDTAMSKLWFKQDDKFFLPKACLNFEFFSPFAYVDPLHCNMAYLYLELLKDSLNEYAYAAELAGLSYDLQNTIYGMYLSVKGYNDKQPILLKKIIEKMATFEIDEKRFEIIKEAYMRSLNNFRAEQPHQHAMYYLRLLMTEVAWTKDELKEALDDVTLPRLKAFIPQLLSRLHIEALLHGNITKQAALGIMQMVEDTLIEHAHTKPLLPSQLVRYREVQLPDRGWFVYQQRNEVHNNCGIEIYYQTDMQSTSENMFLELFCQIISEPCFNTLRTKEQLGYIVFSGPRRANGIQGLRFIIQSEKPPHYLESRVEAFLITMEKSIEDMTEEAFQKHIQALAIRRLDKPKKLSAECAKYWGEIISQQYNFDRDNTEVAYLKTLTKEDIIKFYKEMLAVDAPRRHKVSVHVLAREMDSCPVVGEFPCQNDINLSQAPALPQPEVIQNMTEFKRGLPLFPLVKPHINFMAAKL

Insulin-degrading enzyme [7] = target: T2, Insulin-degrading enzyme; assay: activators of endogenous IDE in HEK cells, dose response, cell-based, fluorescence polarization (AID 588439); format: functional
[8] = target: T3, Probable nicotinate-nucleotide adenylyltransferase (Staphylococcus aureus (strain N315), UniProt P65502); format: functional, Staphylococcus aureus subsp. aureus N315;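 as to IC50 Mean: confirmatory dose-response retesting of NadD inhibitor hits first found in an ultra-high-throughput screen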
T3 sequence (P65502 whole entry): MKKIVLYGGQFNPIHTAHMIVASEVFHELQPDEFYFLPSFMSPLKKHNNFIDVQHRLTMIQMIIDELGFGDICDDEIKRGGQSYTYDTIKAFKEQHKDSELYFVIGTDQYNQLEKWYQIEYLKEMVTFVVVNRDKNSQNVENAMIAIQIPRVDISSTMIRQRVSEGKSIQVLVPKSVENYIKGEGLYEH

HEK293 [9] = assay: NOD2 signaling inhibitors in MDP-stimulated cells, cell-based, uHTS, luminescence (AID 2001); format: functional; conditions: Homo sapiens
HEK293 [10] = assay: cells; format: functional, cell-based; conditions: Homo sapiens
HEK293 [11] = assay: cells; format: functional, cell-based; conditions: Homo sapiens; remark: listed apart in the source
HEK293 [12] = assay: cells; format: functional, cell-based; conditions: Homo sapiens; remark: listed apart in the source
[13] = target: T3, Probable nicotinate-nucleotide adenylyltransferase; format: functional, Staphylococcus aureus subsp. aureus N315; conditions: read-out: IC50_Mean
HEK293 [14] = assay: NOD1 signaling inhibitors, primary screen, cell-based, luminescence, uHTS (AID 1578); format: functional; conditions: Homo sapiens
[15] = target: Nucleotide-binding oligomerization domain-containing protein 2 (Homo sapiens, UniProt Q9HC29); assay: NOD2 signaling inhibitors, cell-based, luminescence, uHTS, HEK293 (AID 1566); format: functional
Nucleotide-binding oligomerization domain-containing protein 2, sequence (Q9HC29 whole entry, the tested form may be a part): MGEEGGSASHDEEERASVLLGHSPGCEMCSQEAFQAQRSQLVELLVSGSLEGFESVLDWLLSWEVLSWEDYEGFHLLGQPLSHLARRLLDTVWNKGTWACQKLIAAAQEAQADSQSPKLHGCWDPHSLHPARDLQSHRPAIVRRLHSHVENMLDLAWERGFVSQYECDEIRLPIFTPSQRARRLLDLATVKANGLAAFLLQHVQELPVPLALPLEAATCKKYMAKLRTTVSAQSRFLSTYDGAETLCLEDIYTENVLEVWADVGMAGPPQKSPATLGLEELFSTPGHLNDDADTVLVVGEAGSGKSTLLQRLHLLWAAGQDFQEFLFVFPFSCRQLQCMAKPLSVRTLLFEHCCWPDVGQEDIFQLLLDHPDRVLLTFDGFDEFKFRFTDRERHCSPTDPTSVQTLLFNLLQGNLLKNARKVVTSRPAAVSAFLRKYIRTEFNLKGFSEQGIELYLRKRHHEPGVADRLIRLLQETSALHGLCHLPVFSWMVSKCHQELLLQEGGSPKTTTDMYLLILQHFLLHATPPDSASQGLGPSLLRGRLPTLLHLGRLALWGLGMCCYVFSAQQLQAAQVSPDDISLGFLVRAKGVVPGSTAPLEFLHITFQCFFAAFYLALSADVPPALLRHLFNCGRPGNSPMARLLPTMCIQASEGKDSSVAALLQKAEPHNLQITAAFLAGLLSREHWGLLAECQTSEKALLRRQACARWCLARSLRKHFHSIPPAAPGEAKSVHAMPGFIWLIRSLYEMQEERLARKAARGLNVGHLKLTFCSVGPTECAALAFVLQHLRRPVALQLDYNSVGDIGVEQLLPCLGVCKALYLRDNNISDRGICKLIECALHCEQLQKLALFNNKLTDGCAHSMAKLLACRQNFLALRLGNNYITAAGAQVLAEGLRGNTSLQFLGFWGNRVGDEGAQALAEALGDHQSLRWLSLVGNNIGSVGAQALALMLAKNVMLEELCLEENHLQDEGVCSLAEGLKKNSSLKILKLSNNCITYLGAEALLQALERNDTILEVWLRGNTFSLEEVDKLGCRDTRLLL

[16] = target: T4, Sentrin-specific protease 8 (Homo sapiens, UniProt Q96LD8); format: functional
T4 sequence (Q96LD8 whole entry): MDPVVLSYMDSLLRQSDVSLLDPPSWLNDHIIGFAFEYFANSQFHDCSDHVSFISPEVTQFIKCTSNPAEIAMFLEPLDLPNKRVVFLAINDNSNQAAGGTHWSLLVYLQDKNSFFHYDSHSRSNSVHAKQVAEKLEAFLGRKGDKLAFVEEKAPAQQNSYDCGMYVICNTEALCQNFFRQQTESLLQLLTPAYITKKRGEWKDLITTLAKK

[17] = target: T4, Sentrin-specific protease 8; format: functional; remark: listed apart in the source
[18] = target: SWI/SNF-related matrix-associated actin-dependent regulator of chromatin subfamily A member 2 (Homo sapiens, UniProt P51531); assay: Luminescence-based cell-based high throughput dose response assay to identify activators of the function of SWI/SNF related, matrix associated, actin dependent regulator of chromatin, subfamily a, member 2 (SMARCA2, BRM).; format: functional
SWI/SNF-related matrix-associated actin-dependent regulator of chromatin subfamily A member 2, sequence (P51531 whole entry): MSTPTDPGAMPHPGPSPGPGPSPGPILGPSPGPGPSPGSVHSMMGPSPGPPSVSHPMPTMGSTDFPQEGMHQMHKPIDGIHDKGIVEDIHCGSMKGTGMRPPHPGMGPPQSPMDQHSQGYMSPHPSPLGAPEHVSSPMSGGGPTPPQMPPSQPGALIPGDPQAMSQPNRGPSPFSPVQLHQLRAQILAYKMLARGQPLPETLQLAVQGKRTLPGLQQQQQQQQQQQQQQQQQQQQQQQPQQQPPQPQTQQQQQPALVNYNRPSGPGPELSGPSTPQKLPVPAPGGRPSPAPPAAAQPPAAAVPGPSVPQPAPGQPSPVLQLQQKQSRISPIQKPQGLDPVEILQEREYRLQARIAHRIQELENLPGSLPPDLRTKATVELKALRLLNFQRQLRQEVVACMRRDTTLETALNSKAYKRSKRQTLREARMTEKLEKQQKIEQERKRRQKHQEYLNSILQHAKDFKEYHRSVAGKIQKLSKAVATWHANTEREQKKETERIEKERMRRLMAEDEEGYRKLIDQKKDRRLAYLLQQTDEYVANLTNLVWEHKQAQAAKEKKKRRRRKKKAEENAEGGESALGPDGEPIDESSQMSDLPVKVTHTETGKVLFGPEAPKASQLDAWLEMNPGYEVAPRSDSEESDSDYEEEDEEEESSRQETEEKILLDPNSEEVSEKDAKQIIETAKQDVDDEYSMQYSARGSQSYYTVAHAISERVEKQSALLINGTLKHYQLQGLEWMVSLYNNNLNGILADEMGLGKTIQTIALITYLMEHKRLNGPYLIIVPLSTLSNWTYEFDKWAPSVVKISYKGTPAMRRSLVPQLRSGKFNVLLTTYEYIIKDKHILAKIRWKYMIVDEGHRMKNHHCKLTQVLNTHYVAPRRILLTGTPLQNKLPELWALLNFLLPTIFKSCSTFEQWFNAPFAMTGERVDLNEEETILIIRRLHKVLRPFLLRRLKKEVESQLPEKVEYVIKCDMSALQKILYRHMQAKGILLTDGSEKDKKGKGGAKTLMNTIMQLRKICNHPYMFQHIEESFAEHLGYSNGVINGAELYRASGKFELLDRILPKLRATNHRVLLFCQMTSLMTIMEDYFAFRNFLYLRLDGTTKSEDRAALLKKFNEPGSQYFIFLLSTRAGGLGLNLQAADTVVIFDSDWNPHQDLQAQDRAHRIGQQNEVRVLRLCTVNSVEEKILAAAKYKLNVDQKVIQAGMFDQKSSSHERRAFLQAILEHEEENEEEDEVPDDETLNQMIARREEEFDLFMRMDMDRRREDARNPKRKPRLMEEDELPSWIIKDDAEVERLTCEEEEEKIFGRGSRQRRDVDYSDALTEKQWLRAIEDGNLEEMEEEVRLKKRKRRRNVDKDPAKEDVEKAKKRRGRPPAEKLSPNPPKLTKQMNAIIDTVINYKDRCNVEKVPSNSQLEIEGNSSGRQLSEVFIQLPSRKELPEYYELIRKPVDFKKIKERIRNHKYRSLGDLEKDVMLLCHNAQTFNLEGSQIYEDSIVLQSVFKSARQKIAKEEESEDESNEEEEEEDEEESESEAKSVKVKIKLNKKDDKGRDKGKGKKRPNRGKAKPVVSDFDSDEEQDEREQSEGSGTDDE

[19] = Luminescence Cell-Based Dose Response HTS to Identify Activators of Luciferase Translation or Activity in H4 […] Cells. [Related pubchem assays: 1829 (Project Summary), 1814 (Primary HTS)]; format: functional
H4 = assay: Luminescence Cell-Based Dose Response HTS to Identify Activators of 5'UTR Stem-Loop Driven Prion Protein mRNA Translation in H4 Neuroglioblastoma Cells. [Related pubchem assays: 1829 (Project Summary), 1814 (Primary HTS)]; format: functional; conditions: Homo sapiens
[20] = Luminescence Cell-Based Dose Confirmation HTS to Identify Activators of 5'UTR Stem-Loop Driven Alpha-Synuclein mRNA Translation in H4 Neuroglioblastoma Cells. [Related pubchem assays: 1829 (Project Summary), 1814 (Primary HTS)]; format: functional
[21] = Counterscreen for activators of the function of SWI/SNF related, matrix associated, actin dependent regulator of chromatin, subfamily a, member 2 (SMARCA2, BRM): Luminescence-based cell-based high throughput dose response assay to identify non-selective compounds using the VP16 reporter assay.; format: functional
[22] = HeLa cell cytotoxicity, dose response, cytotoxicity control for MgcRacGAP inhibitor project (AID 624300); format: functional
[23] = target: T5, Rac GTPase-activating protein 1 (Homo sapiens, UniProt Q9H0H5); assay: MgcRacGAP GTPase-activating activity inhibitors, confirmation, biochemical, ADP Hunter fluorescence, primary and confirmatory (AID 624330); format: functional
T5 sequence (Q9H0H5 whole entry): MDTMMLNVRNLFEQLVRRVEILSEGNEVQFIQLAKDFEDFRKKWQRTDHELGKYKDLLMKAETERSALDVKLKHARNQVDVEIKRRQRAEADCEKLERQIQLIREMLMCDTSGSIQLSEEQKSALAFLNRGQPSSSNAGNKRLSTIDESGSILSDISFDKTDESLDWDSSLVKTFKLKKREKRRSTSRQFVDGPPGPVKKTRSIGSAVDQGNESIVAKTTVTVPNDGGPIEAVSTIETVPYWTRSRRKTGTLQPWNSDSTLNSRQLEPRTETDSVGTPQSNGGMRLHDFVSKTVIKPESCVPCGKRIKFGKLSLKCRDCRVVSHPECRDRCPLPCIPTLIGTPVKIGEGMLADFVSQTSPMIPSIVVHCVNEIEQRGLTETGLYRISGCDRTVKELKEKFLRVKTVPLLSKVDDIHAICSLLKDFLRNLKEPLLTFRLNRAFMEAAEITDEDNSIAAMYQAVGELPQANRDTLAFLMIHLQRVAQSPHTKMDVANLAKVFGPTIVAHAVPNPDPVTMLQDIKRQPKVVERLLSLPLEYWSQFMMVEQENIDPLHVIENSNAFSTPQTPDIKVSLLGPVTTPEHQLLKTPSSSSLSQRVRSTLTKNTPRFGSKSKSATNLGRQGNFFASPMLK

HeLa = assay: HeLa cell cytotoxicity, dose response, cytotoxicity control for MITF activator project, CellTiter-Glo luminescence, cherry-pick samples (AID 540259); format: functional, cell-based; conditions: Homo sapiens
[24] = target: FAD-linked sulfhydryl oxidase ALR (Homo sapiens, UniProt P55789); assay: inhibitors of human ALR sulfhydryl oxidase, dose response, biochemical, H2O2 detection, luminescence, cherry-pick (AID 493248)
FAD-linked sulfhydryl oxidase ALR, sequence (P55789 whole entry, the tested form may be a part): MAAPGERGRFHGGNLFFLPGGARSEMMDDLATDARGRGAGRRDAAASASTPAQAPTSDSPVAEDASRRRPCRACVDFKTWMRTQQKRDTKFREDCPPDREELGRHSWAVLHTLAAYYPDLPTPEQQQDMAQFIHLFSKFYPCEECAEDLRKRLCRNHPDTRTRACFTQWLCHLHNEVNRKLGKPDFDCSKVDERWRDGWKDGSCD

[25] = target: Hepatocyte nuclear factor 4-alpha (Homo sapiens, UniProt P41235); format: functional, cell-based;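 also: biochemical luminescence-based dose-response counterscreen measuring inhibition of HNF4 dimerization, run alongside a screen for blockers of ABHD5–perilipin-5 interaction; split luciferase complementation of HNF4 fusion proteins in cell lysate measuring dimerization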
Hepatocyte nuclear factor 4-alpha, sequence (P41235 whole entry, the tested form may be a part): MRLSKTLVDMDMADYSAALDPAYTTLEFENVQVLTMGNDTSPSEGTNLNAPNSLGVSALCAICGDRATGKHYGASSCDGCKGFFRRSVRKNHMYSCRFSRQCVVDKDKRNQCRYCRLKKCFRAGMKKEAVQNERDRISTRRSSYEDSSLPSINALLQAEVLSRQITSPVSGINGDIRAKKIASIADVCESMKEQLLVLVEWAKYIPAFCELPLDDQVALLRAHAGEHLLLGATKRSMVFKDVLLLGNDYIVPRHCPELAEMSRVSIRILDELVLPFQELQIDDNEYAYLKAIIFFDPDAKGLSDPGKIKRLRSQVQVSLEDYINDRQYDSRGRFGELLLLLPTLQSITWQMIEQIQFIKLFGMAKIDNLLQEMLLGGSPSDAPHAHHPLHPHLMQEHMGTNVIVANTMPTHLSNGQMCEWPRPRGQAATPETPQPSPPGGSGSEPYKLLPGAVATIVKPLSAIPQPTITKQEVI

## O=c1c(OC2OC(CO)C(O)C(O)C2OC2OC(CO)C(O)C(O)C2O)c(-c2ccc(O)cc2)oc2cc(O)cc(O)c12 (stereo unspecified)
[1]
  IC50: 20.9 µM (inactive)
[2]
  IC50: 83.3 µM (inactive)
[3]
  IC50: 38.8 µM (inactive)

## O=C(c1cnn(C(=O)c2ccco2)c1)c1cc(F)ccc1O
HEK293 [4]
  IC50: > 89.1 µM (inactive)
HEK293 [5]
  EC50: > 54.7 µM (inactive)
Insulin-degrading enzyme [6]
  EC50: > 54.7 µM (inactive)
Insulin-degrading enzyme [7]
  EC50: > 54.7 µM (inactive)

## CC(OC(=O)c1ccc(Cl)nc1)C(=O)NC1(C#N)CCCCC1 (stereo unspecified)
HEK293 [4]
  IC50: > 89.3 µM (inactive)
HEK293 [5]
  EC50: > 54.7 µM (inactive)
Insulin-degrading enzyme [6]
  EC50: > 54.7 µM (inactive)
Insulin-degrading enzyme [7]
  EC50: > 54.7 µM (inactive)

## Cc1ccc(NS(=O)(=O)c2cc(NC(=O)c3ccc4c(c3)NC(=O)CS4)ccc2Cl)c(C)c1
[8]
  IC50: 19.5 µM (active)
HEK293 [9]
  IC50: 7.17 µM (inactive)
HEK293 [10]
  IC50: 6.3 µM (active)
HEK293 [11]
  IC50: 11.5 µM (active)
HEK293 [12]
  IC50: > 20 µM (inactive)
[13]
  IC50: 48.8 µM (active)
HEK293 [14]
  EC50: 6.38 µM (active)
[15]
  EC50: 14.3 µM (active)

## COc1ccccc1NC(=O)c1cn(C)c(=O)c2cc(OC)c(OC)cc12
[16]
  IC50: 10.2 µM (active)
[17]
  IC50: 48.1 µM (active)

## Nc1cc(C2CCCC2)nn1-c1ccccc1
[18]
  EC50: > 91.2 µM (inactive)
[19]
  EC50: 7.02 µM (active)
H4
  EC50: 6.8 µM (active)
[20]
  EC50: 0.13 µM (active)
[21]
  EC50: > 91.2 µM (inactive)

## C(=N\Nc1nc2ccccc2[nH]1)/c1c[nH]c2ccccc12
[1]
  IC50: 11.7 µM (inactive)
[2]
  IC50: 34.8 µM (inactive)
[22]
  CC50: 81.9 µM (active)
[23]
  IC50: 35.8 µM (active)
[3]
  IC50: 32.2 µM (inactive)
HeLa
  AC50: 40 µM (active)
[24]
  AC50: 0.309 µM (active)

## COc1ccc(/N=C/c2nc(-c3ccco3)oc2O)cc1
[18]
  EC50: > 91.2 µM (inactive)
[21]
  EC50: > 91.2 µM (inactive)

## O=C1CC(c2ccc(Cl)cc2)Oc2ccc(Cl)cc21 (stereo unspecified)
[25]
  IC50: 6.14 µM (active)
